In PubChem BioAssay AID624303 (The Scripps Research Institute Molecular Screening Center, 2012):
Activity calls are given as the source filed them.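 The calls were made as follows: active = inhibition of at least 2%; inactive = inhibition below 2%.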

Target: Tyrosine-protein kinase ABL1 (Homo sapiens) (UniProt P00519)
Experiment: reduction of ABL1-mediated CRK phosphorylation – biochemical, purified CRK substrate, chemiluminescent immunoblot, powders, round 1, RIN1-ABL interaction inhibitor project, late-stage follow-up (AID 624303)
Settings: purified ABL1 phosphorylating CRK, anti-pTyr chemiluminescence blot; at 10 µM; stronger effect = higher value

Chain of Tyrosine-protein kinase ABL1 (Homo sapiens) (P00519 whole entry, looked up): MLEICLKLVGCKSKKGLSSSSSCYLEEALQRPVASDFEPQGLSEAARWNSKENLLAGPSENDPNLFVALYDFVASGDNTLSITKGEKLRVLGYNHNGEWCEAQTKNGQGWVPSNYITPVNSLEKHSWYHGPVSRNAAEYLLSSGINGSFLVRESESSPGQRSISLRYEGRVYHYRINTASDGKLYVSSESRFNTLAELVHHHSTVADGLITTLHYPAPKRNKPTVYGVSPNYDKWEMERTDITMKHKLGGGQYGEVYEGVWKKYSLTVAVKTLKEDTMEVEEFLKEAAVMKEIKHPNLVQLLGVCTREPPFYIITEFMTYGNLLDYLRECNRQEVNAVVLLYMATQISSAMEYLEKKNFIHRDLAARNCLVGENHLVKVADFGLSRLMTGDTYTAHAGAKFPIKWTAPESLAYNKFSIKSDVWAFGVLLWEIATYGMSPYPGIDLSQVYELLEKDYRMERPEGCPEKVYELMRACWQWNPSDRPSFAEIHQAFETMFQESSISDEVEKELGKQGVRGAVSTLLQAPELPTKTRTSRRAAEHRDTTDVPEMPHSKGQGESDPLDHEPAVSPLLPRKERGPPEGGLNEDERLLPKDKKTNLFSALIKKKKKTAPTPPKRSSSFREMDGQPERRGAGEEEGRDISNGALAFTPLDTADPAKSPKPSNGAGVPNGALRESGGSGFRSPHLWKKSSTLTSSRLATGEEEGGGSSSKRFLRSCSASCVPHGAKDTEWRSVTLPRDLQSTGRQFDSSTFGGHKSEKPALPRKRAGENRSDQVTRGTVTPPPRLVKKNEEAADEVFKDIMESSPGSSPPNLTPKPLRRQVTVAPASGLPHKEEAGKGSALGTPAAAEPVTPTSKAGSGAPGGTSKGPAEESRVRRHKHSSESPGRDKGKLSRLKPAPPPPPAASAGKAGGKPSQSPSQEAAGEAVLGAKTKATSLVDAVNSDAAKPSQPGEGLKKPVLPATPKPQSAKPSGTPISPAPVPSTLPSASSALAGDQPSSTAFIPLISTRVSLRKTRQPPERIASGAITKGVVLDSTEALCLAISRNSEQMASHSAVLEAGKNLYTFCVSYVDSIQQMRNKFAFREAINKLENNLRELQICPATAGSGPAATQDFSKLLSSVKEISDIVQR

Row | Structure (SMILES) | inhibition
1 | COc1ccc(C(=O)N2CCC(C(=O)Nc3ccc(CC(=O)Nc4ccc(C(=O)N(C)C5CC5)cc4)cc3)CC2)cc1 | 0% (inactive)
2 | CN(Cc1c(F)cccc1Cl)C(=O)CNC(=O)c1ccc2c(c1)OCO2 | 0% (inactive)
3 | O=c1cc(OCc2ccccc2)cc[nH]1 | 0% (inactive)
4 | O=C(Cc1ccc(NC(=O)C2CCN(C(=O)c3ccccc3)CC2)cc1)Nc1ccc(C(=O)N2CCOCC2)cc1 | 0% (inactive)
5 | CN(C(=O)c1ccc(NC(=O)Cc2ccc(NC(=O)C3CCN(C(=O)c4ccccc4)CC3)cc2)cc1)C1CC1 | 0% (inactive)
6 | CN(C(=O)c1ccc(NC(=O)Cc2ccc(NC(=O)C3CCN(C(=O)c4cccc(F)c4)CC3)cc2)cc1)C1CC1 | 0% (inactive)
7 | CN(CCc1ccccc1)C(=O)c1ccc(NC(=O)Cc2ccc(NC(=O)C3CCN(C(=O)c4ccccc4)CC3)cc2)cc1 | 0% (inactive)
8 | CCOC(=O)N1CCC(NC(=O)CCc2nc(C3=CCN(C)CC3)no2)CC1 | 0% (inactive)
9 | CSc1ccccc1OCc1cc(C(=O)N2CCNC(=O)C2)no1 | 0% (inactive)
10 | COc1ccc2oc(C(=O)NCC(c3ccco3)N(C)C)c(C)c2c1 (configuration not stated) | 0% (inactive)
11 | CC(=O)Nc1ccc(NC(=O)C2CCN(C(=O)c3cccs3)CC2)cc1 | 0% (inactive)
12 | Cc1c(C(=O)NCC(c2ccco2)N(C)C)oc2c(Cl)cccc12 (configuration not stated) | 0% (inactive)
13 | O=C(Cc1ccc(NC(=O)C2CCN(C(=O)C3CCCCC3)CC2)cc1)Nc1ccc(C(=O)N2CCOCC2)cc1 | 0% (inactive)
14 | CN(CCc1ccccc1)C(=O)c1ccc(NC(=O)Cc2ccc(NC(=O)C3CCN(C(=O)C4CCCC4)CC3)cc2)cc1 | 0% (inactive)
15 | Cn1c(=O)c2c(nc(-n3ccnc3)n2Cc2ccc(Cl)cc2Cl)n(C)c1=O | 0% (inactive)
16 | O=C(c1cc(COc2cccc3cccnc23)on1)N1CCC[C@H]1CO | 0% (inactive)
17 | N#Cc1ccccc1Sc1ccccc1C(=O)NCC(c1ccco1)N1CCCC1 (configuration not stated) | 0% (inactive)
18 | O=C(Cc1ccc(NC(=O)C2CCN(C(=O)C3CCCC3)CC2)cc1)Nc1ccc(C(=O)N2CCOCC2)cc1 | 0% (inactive)
19 | COc1cccc(CSc2nnc(CSc3nc4nc(C)cc(C)n4n3)s2)c1 | 0% (inactive)
20 | CN(C(=O)c1ccc(NC(=O)Cc2ccc(NC(=O)C3CCN(C(=O)c4ccc(F)cc4)CC3)cc2)cc1)C1CC1 | 0% (inactive)
21 | CCOC(=O)N1CCN(C(=O)Nc2ccc(NC(=O)N3CCN(C(=O)OCC)CC3)cc2)CC1 | 0% (inactive)
22 | COc1ccc(CCNc2cc(=O)[nH]c(N)n2)cc1 | 0% (inactive)
